Read-outs that look alike come from different tables or passages of the source.
What was measured:
[1] = human, pH 7.4
[2] = In vitro transdermal caffeine delivery, Franz diffusion cells, excised human epidermis; assay type: in vitro ADME; settings: after application of the formulations
Description: Pre-clinical selection of topical formulations was performed using an in-vitro penetration study through human epidermal membrane, which assesses the percutaneous absorption profiles of applied drugs. The method is based on the use of excised human skin as a membrane in a diffusion system that simulates in-vivo skin conditions. By analyzing the amount of the drug reaching the receptor solution, the penetration profile of the drug in the skin can be assessed and used as a tool to determine the feasibility of formulations for subsequent development. Embodiments of the transdermal compositions were tested in an in vitro penetration study through human epidermis as a testing membrane to simulate topical drug delivery. In particular, excised human epidermis was utilized to assess the penetration profiles of caffeine. Two transdermal compositions were tested: Formulation A and Formulation B. […] Formulation A was tested with and without occlusion. Parafilm was applied for occlusion tests, and the samples were kept under occlusion during the period of the study. […] The materials for the assays were: […] Formulation A; and Formulation B. […] Therefore, each formulation contained radioactive caffeine of 50 μCi/mL. The mixtures were stored at a 4° C. refrigerator after preparation. […] The amount of radioactive caffeine was analyzed from the receptor fluid samples. […]

Row | Structure (SMILES) | amount of active ingredient that penetrated the epidermis ([1]; 5 %) | amount of active ingredient that penetrated the epidermis [1] | time to penetration of caffeine through the epidermis into the receptor chamber [2] [min]
1 | Nc1nc2ncc(CNc3ccc(C(=O)N[C@@H](CCC(=O)O)C(=O)O)cc3)nc2c(=O)[nH]1 [folic acid] | Approximately 1% |  | 
2 | CC(=O)O[C@H]1C(=O)[C@@]2(C)[C@H]([C@H](OC(=O)c3ccccc3)[C@]3(O)C[C@H](OC(=O)[C@H](O)[C@@H](NC(=O)c4ccccc4)c4ccccc4)C(C)=C1C3(C)C)[C@]1(OC(C)=O)CO[C@@H]1C[C@@H]2O [Paclitaxel, paclitaxel] |  | approximately 0.5% | 
3 | Cn1c(=O)c2c(ncn2C)n(C)c1=O [caffeine] | Greater than 3% | greater than 1% | ≤ 3
4 | C[C@]12CC[C@@H]3c4ccc(O)cc4CC[C@H]3[C@@H]1CC[C@@H]2O [estradiol] | Greater than 2% |  | 

Source: US20150174068A1, “Apparatus, Composition, and Related Methods for Transdermal Delivery of Active Ingredients” (CURE IP HOLDINGS, LLC, priority 2011, published 2015)
